Data on 17 molecules can be found in patent publication US7148338B2, “Nucleic acids encoding dipeptidyl peptidases” (The University of Sydney, priority 1999, dated 2006).

Non-standard residues stand in square brackets, D forms with d. Residues, ends and D or L forms follow the SMILES beside them. *: point of attachment. Sta = CC(C)C[C@H](N)[C@@H](O)CC(=O)O; pNA = O=[N+]([O-])c1ccc(N*)cc1; Isovaleryl = CC(C)CC(=O)*; Cbz = O=C(OCc1ccccc1)*

For data set [1], the target named is T1, DPP8 (Homo sapiens, UniProt Q6V1X1). Description: Inhibition of peptidase activity of purified DPP8, substrate H-Ala-Pro-pNA. The data set is classed as biochemical. The arrangement: the full length DPP8 cDNA of 3.1 kb was cloned into the Xba I site of pcDNA3.1A/V5/His expression vector; His tag (C); made in house; host or cells: COS-7 cells, stably transfected. To be noted: for Residual activity (% of control): 1 mM H-Ala-Pro-pNA, pH 7.4. As for the experimental part:
(§1) Cells (1×10^7) expressing each protein were sonicated in native buffer (50 mM sodium phosphate, 300 mM NaCl), then treated with 700 U DNAse for 20 min at room temperature. DPPIV is expressed at the cell surface, so 1% Triton X-100 was used to solubilize DPPIV/V5/His. Insoluble material was removed by centrifugation. The supernatant was incubated with 1 mL Talon® Metal Affinity Resin (Clontech) following the manufacturer's instructions for a batch/gravity flow procedure. The resin was washed with 50 mM sodium phosphate, containing 300 mM NaCl and 5 mM imidazole, and proteins were eluted using the same buffer containing 150 mM imidazole. Enzyme activity was used to monitor eluted fractions.
(§2) Enzyme assays were performed as described previously. Either clarified cell extract from 1×10^4 sonicated COS-7 cells or purified protein derived from 1×10^5 cells was incubated with substrate in 70 μL phosphate buffer, pH 7.4, for 30 min at 37° C., except where otherwise indicated. The specific DPPIV substrates, Gly-Pro-toluenesulfonate, H-Gly-Pro-p-nitroanilide (NA)/HCl (Sigma, St Louis, Mo., USA) and Gly-Pro-7-amino-4-trifluromethylcoumarin (Calbiochem, San Diego, Calif., USA) were tested. Other substrates tested were H-Ala-Pro-pNA/HCl, H-Arg-Pro-pNA acetate salt, H-Lys-Ala-pNA.2HCl, H-Asp-Pro-pNA, H-Ala-Ala-pNA/HCl, H-Ala-Ala-Pro-pNA/HCl, H-Ala-Ala-Phe-pNA, succinyl-Ala-Pro-pNA, H-Ala-Phe-Pro-pNA and Z-Ala-Pro-p-NA from Bachem (Switzerland). H-Ala-Pro-4-methoxyβNA/HCl, Z-Lys-Pro-4-methoxyβNAformate salt, H-Lys-Pro-4-methoxyβNA/HCl, Z-Ala-Pro-4-methoxyβNA, H-Gly-Pro-βNA and H-His-Ser-4-methoxyβNAacetate salt (Bachem) were tested for their ability to stain unfixed transfected cells. All inhibitors were (see Table 2) incubated with each purified enzyme in phosphate buffer, pH 7.4, for 15 min before the addition of substrate. After the addition of 1 mM H-Ala-Pro-pNA substrate for purified DPP8 and 1 mM H-Gly-Pro-pNA substrate for purified DPPIV, samples were incubated for 60 min at 37° C. All enzyme assays were performed in triplicate.

The target of data set [2] is T2, DPPIV (Homo sapiens, UniProt P27487). Put plainly: Inhibition of peptidase activity of purified DPPIV, substrate H-Gly-Pro-pNA. Set-up: His tag; made in house; host or cells: transfected COS-7 cells; solubilised with 1% Triton X-100. To be noted: 1 mM H-Gly-Pro-pNA, pH 7.4. In kind it is biochemical. As for the experimental part: as §1, §2
Data set [3] deals with DPP8-transfected COS cells and CHO cells. Put plainly: Cytochemical staining of unfixed transfected cell monolayers by substrates. In kind it is cell-based. To be noted: data not shown. How it is done:
(§3) Monkey kidney fibroblast (COS-7) cells (American Type Culture Collection, CRL-1651) were grown and transfected as described previously. For making stable cell lines, Geneticin (G418; Gibco-BRL) was added to the medium, beginning 24 h after transfection. COS cell extracts were prepared by sonication followed by differential centrifugation and neither boiled nor reduced before SDS/PAGE (10% gel) and transfer to nitrocellulose, as described previously. The presence of DPP8 fused with the V5 epitope was detected using an anti-V5 mAb (Invitrogen). COS cell monolayers were fixed in cold ethanol before staining with anti-V5 mAb. Some monolayers were fixed in 4% paraformaldehyde and permeabilized with 0.1% Triton X-100 [35], then double-stained with wheat germ agglutinin to label Golgi apparatus and with goat anti-mouse IgG to label DPP8, conjugated to Alexa Fluor 488 and Alexa Fluor 594, respectively (Molecular Probes, Eugene, Oreg., USA). Flow cytometry and confocal scanning microscopy using a Leica TCS-NT confocal microscope have been described previously.
Enzyme assays were performed as described previously. Either clarified cell extract from 1×10^4 sonicated COS-7 cells or purified protein derived from 1×10^5 cells was incubated with substrate in 70 μL phosphate buffer, pH 7.4, for 30 min at 37° C., except where otherwise indicated. […]

Data set [4] concerns the target T3, DPP8/V5/His (Homo sapiens, UniProt Q6V1X1).
T3 construct: the full length DPP8 cDNA of 3.1 kb was cloned into the Xba I site of pcDNA3.1A/V5/His expression vector; His tag (C); made in house; host or cells: COS-7 cells, stably transfected
Put plainly: Substrate hydrolysis by purified recombinant DPP8/V5/His. The data set is classed as biochemical. As for the experimental part:
as §1, §2

Data set [5] addresses T1, DPP8. Put plainly: Substrate hydrolysis by extracts of DPP8-transfected COS-7 cells. The data set is classed as biochemical. Set-up: the full length DPP8 cDNA of 3.1 kb was cloned into the Xba I site of pcDNA3.1A/V5/His expression vector; expressed in transfected cells; host or cells: COS-7 (monkey kidney fibroblast) cells; clarified sonicated cell extract. To be noted: above the levels of untransfected COS-7 cells; data not shown. As for the experimental part:
as §3, §2
DPPIV expressed in COS-7 cells with or without the V5/His tag were positive controls, and negative controls included vector-only transfected COS07 cells. […] The pH optimum of DPP8 enzyme activity was 7.4 (FIG. 5A), similar to the pH 7.8 optimum DPPIV enzyme activity. […]

The target in data set [6] is T4, DPPIV/V5/His (Homo sapiens, UniProt P27487).
T4 construct: His tag; made in house; host or cells: transfected COS-7 cells; solubilised with 1% Triton X-100
Put plainly: Substrate hydrolysis by purified recombinant DPPIV/V5/His. The data set is classed as biochemical. How it is done: as §1, §2

For data set [7], the target named is T1, DPP8. Put plainly: Enzyme kinetics (Km, Vmax) of purified DPP8. The data set is classed as biochemical. Set-up: the full length DPP8 cDNA of 3.1 kb was cloned into the Xba I site of pcDNA3.1A/V5/His expression vector; His tag (C); made in house; host or cells: COS-7 cells, stably transfected. To be noted: for Km: Michaelis-Menten fit. How it is done: (§4) FIG. 7. DPP8 enzyme activity. (A) pH-dependence of DPP8 enzyme activity. (B) DPP8 and DPPIV enzyme kinetics. Means +/− SD of absorbance change per minute, multiplied by 1000 are shown. Curve fitting assumed Michaelis-Menten kinetics.
as §1, §2

The target of data set [8] is T2, DPPIV. Description: Enzyme kinetics (Km, Vmax) of purified DPPIV. In kind it is biochemical. The arrangement: His tag; made in house; host or cells: transfected COS-7 cells; solubilised with 1% Triton X-100. To be noted: for Km: Michaelis-Menten fit. How it is done: as §4, §1, §2
Data set [9] addresses T2, DPPIV. To be noted: reference [46]; cited from earlier work.

T1 sequence (Q6V1X1 17-898 limits assumed): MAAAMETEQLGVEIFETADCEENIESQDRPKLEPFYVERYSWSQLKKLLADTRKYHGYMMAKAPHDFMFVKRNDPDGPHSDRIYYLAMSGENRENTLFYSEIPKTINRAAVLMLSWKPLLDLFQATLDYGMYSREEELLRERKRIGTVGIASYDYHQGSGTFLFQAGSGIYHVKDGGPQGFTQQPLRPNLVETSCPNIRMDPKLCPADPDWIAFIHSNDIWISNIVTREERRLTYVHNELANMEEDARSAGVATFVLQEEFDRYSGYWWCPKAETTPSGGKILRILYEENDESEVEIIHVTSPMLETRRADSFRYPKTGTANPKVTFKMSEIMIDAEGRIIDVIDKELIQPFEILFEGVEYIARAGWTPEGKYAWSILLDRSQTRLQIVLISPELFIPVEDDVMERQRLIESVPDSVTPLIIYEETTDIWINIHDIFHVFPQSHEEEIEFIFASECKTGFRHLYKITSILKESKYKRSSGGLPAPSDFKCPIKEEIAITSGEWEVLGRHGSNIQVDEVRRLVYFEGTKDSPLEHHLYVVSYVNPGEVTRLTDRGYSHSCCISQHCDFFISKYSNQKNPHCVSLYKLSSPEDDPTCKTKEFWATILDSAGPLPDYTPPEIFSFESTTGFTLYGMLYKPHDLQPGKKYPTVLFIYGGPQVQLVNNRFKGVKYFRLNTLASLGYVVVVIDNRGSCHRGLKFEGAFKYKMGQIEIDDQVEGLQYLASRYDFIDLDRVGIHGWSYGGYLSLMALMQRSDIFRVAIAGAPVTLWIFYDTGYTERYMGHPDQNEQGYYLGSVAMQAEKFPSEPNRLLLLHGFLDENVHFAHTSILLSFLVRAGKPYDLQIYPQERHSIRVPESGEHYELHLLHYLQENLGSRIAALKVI
T3 sequence (Q6V1X1 17-898 limits assumed): as above
T2 sequence (P27487 whole entry): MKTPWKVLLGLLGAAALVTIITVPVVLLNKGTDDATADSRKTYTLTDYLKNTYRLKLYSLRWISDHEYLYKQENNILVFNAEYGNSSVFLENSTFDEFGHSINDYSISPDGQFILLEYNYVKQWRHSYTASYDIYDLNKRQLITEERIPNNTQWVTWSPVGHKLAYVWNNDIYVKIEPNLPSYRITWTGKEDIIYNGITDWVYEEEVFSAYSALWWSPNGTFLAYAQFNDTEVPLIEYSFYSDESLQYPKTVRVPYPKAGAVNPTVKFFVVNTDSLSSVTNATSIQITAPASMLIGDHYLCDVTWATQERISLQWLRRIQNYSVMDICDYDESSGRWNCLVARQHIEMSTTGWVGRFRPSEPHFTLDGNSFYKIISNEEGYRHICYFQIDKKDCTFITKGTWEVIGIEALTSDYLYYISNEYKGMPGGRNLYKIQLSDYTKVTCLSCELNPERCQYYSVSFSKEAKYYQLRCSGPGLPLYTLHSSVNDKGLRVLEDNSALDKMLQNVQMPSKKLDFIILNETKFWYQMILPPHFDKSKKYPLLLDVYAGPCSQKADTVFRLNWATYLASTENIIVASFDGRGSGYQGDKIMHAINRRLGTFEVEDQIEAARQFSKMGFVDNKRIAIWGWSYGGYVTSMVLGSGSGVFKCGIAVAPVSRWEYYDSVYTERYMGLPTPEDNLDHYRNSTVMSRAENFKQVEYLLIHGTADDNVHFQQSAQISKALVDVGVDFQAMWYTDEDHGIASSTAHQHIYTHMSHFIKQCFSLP
T4 sequence (P27487 whole entry): as above

In the case of `O[C@H](CS)[C@H](O)CS` (racemic) [Dithiothreitol], the “Residual activity (% of control)” value in [1] (inhibitor 2 mM) is 108 % of control; in data set [2] (inhibitor 2 mM), 109 % of control.
Take `COc1cc(NC(=O)[C@@H]2CCCN2C(=O)[C@H](C)N)cc2ccccc12.Cl` [Ala-Pro-4MβNA/HCl, H-Ala-Pro-4-methoxyβNA/HCl]: the “Staining of DPP8-transfected cells by substrate” value in data set [3] was “stained”.
With `Cl.N=C(N)c1ccccc1` [Benzamidine/HCl], the entries for the “Residual activity (% of control)” value in data set [1] (inhibitor 10 mM) and in data set [2] (inhibitor 10 mM) were 82 % of control and 89 % of control, respectively.
Take `C[C@H](N)C(=O)N[C@@H](C)C(=O)N[C@@H](Cc1ccccc1)C(=O)Nc1ccc([N+](=O)[O-])cc1` [H-Ala-Ala-Phe-pNA] (H-Ala-Ala-Phe-pNA): the “Hydrolysis (cleavage) of substrate by purified recombinant DPP8” value (from here on “Hydrolysis (cleavage) of substrate”) in data set [4] is on record as “neither”.
Regarding `C[C@H](N)C(=O)N[C@@H](C)C(=O)N1CCC[C@H]1C(=O)Nc1ccc([N+](=O)[O-])cc1.Cl` [H-Ala-Ala-Pro-pNA] (H-Ala-Ala-Pro-pNA), the “Hydrolysis of substrate by extracts of DPP8-transfected COS-7 cells” value (“Hydrolysis … of DPP8-transfected COS-7 cells” for short) in data set [5] was “exhibited tripeptidyl peptidase activity”.
For `C[C@H](N)C(=O)N[C@@H](Cc1ccccc1)C(=O)N1CCC[C@H]1C(=O)Nc1ccc([N+](=O)[O-])cc1` [H-Ala-Phe-Pro-pNA] (H-Ala-Phe-Pro-pNA), the “Hydrolysis (cleavage) of substrate” value in data set [4] was “neither”.
Usually Km stands for the substrate concentration at which the rate is half of its maximum. Consider `C[C@H](N)C(=O)N1CCC[C@H]1C(=O)Nc1ccc([N+](=O)[O-])cc1` [H-Ala-Pro-pNA] (H-Ala-Pro-pNA), for which, in data set [6], the “Hydrolysis of substrate by purified recombinant DPPIV” value is listed as “hydrolyzed”. For the same molecule, the “Hydrolysis (cleavage) of substrate” value in data set [4] is “hydrolyzed”. Moreover, the “Hydrolysis … of DPP8-transfected COS-7 cells” value in [5] is “hydrolyzed”. In [7], the Vmax is reported as 12.4 ± 0.9 ΔA min^−1 × 1000 and the Km worked out at 991 ± 171 µM. Besides, in data set [8], the Vmax is reported as 9.6 ± 1.0 ΔA min^−1 × 1000 and the Km turned out to be 374 ± 134 µM.
Take `NC(N)=NCCC[C@H](N)C(=O)N1CCC[C@H]1C(=O)Nc1ccc([N+](=O)[O-])cc1` [H-Arg-Pro-pNA] (H-Arg-Pro-pNA): the “Hydrolysis of substrate by purified recombinant DPPIV” value in data set [6] is “hydrolyzed”. The “Hydrolysis (cleavage) of substrate” value in data set [4] was “hydrolyzed”. Besides, the “Hydrolysis … of DPP8-transfected COS-7 cells” value in [5] is “hydrolyzed”.
For `NCC(=O)N1CCC[C@H]1C(=O)Nc1ccc([N+](=O)[O-])cc1` [H-Gly-Pro-pNA, H-Gly-Pro-p-nitroanilide] (H-Gly-Pro-pNA), in [6], the “Hydrolysis of substrate by purified recombinant DPPIV” value is given as “hydrolyzed”. Besides, in [4], the “Hydrolysis (cleavage) of substrate” value is reported as “hydrolyzed”. Also, in data set [7], the Vmax is 3.5 ± 0.14 ΔA min^−1 × 1000 and the Km came to 467 ± 64 µM. Also, in data set [8], the Vmax is listed as 7.2 ± 0.49 ΔA min^−1 × 1000 and the Km came to 347 ± 88 µM.
As for `NC(=O)CI` [Iodoacetamide], the “Residual activity (% of control)” value in [1] (inhibitor 2 mM) is given as 100 % of control; in data set [2] (inhibitor 2 mM), 115 % of control.
As to `CC(=O)N[C@@H](CC(C)C)C(=O)N[C@@H](CC(C)C)C(=O)N[C@H](C=O)CCCNC(=N)N` [Leupeptin], the “Residual activity (% of control)” value in data set [1] (inhibitor 0.1 mM) is 93 % of control; in [2] (inhibitor 0.1 mM) it was 104 % of control.
Consider `CC(C)CC(=O)N[C@H](C(=O)N[C@H](C(=O)N[C@@H](CC(C)C)[C@@H](O)CC(=O)N[C@@H](C)C(=O)N[C@@H](CC(C)C)[C@@H](O)CC(=O)O)C(C)C)C(C)C` [Pepstatin] (Isovaleryl-VV[Sta]A[Sta]-OH), for which the results for the “Residual activity (% of control)” value in data set [1] (inhibitor 2 μg mL^−1) and in [2] (inhibitor 2 μg mL^−1) were 107 % of control and 110 % of control, respectively.
Take `C[C@H](NC(=O)OCc1ccccc1)C(=O)N1CCC[C@H]1C(=O)Nc1ccc([N+](=O)[O-])cc1` [Z-Ala-Pro-pNA] (Cbz-Ala-Pro-pNA): the “Hydrolysis … of DPP8-transfected COS-7 cells” value in data set [5] was “endopeptidase activity”.
As for `O=S(=O)([O-])[O-].[Zn+2]` [Zinc sulphate], the “Inhibition of DPPIV enzyme activity (in words)” value in data set [9] is recorded as “completely inhibits”.
Consider “Ala-Pro-Gly (APG) [peptide that mimics DPP8 substrates]”, for which the “Residual activity (% of control)” value in data set [1] (inhibitor 10 mM) was 51 % of control; in data set [2] (inhibitor 10 mM) it was 67 % of control. Also, the “Inhibition of DPP8 enzyme activity (in words)” value in data set [1] (purified DPP8) was “probably competitively inhibited”.
On to Aprotinin, for which the “Residual activity (% of control)” value in data set [1] (inhibitor 4 μg mL^−1) is 47 % of control; in data set [2] (inhibitor 4 μg mL^−1) it was 81 % of control.
Gly-Gly-Gly (GGG) [peptide]: the “Residual activity (% of control)” value is listed as 99 % of control in data set [1] (inhibitor 10 mM) and 106 % of control in [2] (inhibitor 10 mM).
